Data: publication PMC8222713, “Variation of Two S3b Residues in KV4.1–4.3 Channels Underlies Their Different Modulations by Spider Toxin κ-LhTx-1” (Frontiers in Pharmacology, 2021)
Where a SMILES comes first, the peptide text is derived from it. Bridges are numbered along the chain shown (N, C = ends).

Assays:
KV4.1 channel (mKV4.1) = biological target: T1, KV4.1 channel (mKV4.1) (Mus musculus, UniProt Q03719); experiment: Whole-cell patch clamp, KV4.1 in CHO-K1 cells; format: cell-based
T1 construct: expressed in transfected cells; host or cells: CHO-K1 (transient, co-transfected with pEGFP-N1)
T1 sequence (Q03719 1-651): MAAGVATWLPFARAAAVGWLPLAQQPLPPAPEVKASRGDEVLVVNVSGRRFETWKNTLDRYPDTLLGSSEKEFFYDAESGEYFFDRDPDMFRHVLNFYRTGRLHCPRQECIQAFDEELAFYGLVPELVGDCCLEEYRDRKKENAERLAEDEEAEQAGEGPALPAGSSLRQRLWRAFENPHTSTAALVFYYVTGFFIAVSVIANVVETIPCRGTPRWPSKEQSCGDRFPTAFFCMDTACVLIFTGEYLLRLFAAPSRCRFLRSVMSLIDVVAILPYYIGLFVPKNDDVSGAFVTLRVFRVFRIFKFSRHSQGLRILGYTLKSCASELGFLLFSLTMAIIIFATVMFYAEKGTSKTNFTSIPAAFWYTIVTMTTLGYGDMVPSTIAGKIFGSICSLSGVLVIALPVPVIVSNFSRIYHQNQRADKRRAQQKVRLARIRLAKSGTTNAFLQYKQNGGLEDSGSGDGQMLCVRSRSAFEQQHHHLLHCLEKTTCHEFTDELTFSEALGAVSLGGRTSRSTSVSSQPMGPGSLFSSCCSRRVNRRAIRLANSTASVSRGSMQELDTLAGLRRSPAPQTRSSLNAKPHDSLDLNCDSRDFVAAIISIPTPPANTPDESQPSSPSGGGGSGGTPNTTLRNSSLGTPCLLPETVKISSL
Experimental: (§1) The cDNA of hKV1.1, hKV1.3, rKV1.4, hKV1.5, rKV2.1, hKV3.1–3.4, mKV4.1, rKV4.2, and rKV4.3 were subcloned in the eukaryotic expression vector pCDNA3.1 or pCMV-blank. Channel mutants were made by a site-directed mutation method. Briefly, a pair of oppositely directed primers with 15 bp overlap at their 5′ ends and the designed mutation site were used to amplify the parental channel plasmid, then the PCR mix was treated with DpnI to remove the template. 10 μL digestion mix was directly used to transform 100 μL DH5α chemical competent cells. The correct mutation made by this procedure was finally confirmed by DNA sequencing. CHO-K1 cells (ATCC® CCL-61™) were grown in DMEM-F12 mixed medium (1:1) supplemented with 10% FBS and maintained in standard conditions (saturated humidity, 37°C, 5% CO2). Channel plasmid was co-transfected with pEGFP-N1 (encodes the green fluoresence protein) into CHO-K1 cells using lipofectamine 2000 following the manufacturer’s instructions. 4–6 h after transfection, cells were seeded onto poly-lysine (PLL) coated coverslips, and 24–36 h later, transfected cells were ready for patch-clamp analysis. It should be note that KV4.2 and its mutants were also co-expressed with hKChIP1 to promote their functional expressions.
(§2) Whole-cell patch clamp recording was performed in an electrophysiology platform equipped with MultiClamp 700B amplifier and Axon Digidata 1550 AD/DA convertor (Axon Instruments, Irvine, CA, United States). Data were acquired using the pClamp software (Axon Instruments, Irvine, CA, United States). All experiments were performed at room temperature. The bath solution contains (in mM): 140 NaCl, 5 KCl, 1 MgCl2, 2 CaCl2, 10 glucose, and 10 HEPES (pH = 7.3). The pipette solution contains (in mM): 140 KCl, 2.5 MgCl2, 11 EGTA, and 10 HEPES (pH = 7.3). Series resistance was kept below 10 MΩ and compensated to 80%. The concentration–response curves were fitted by a Hill logistic equation to estimate the potency (IC50) of the toxin. The whole cell conductance (G) at each depolarizing voltage (V) was determined using the equation: G = I/(V−Vrev), where I and Vrev represents the current amplitude and the reversal potential, respectively. In the present study, Vrev for K^+ current is determined to be −85.61 mV using the Nernst equation. G-V curve was obtained by plotting the normalized G as a function of V and fitted by the Boltzmann equation: y = 1/{1 + exp [(Va−V)/K]}, in which Va, V, and K represents half-maximum activation voltage, test voltage and slope factor, respectively. The steady-state fast inactivation of KV4 channels was measured using a classical two-pulses protocol: cell was held at −120 mV, and a train of conditional voltages (−120–40 mV, in 10 mV increment, 1,000 ms) were applied to induce channel inactivation, followed by a +60 mV test pulse (300 ms) to assess the proportion of non-inactivated channels; the sweep interval was set to 10 s. Currents at the test pulse (I) were normalized to the maximum value (Imax) and plotted as a function of the conditional voltage (V), the curve was fitted by the Boltzmann equation: I/Imax = A + (1−A)/{1 + exp [(V−Vh)/K]}, where Vh is the half-maximum inactivation voltage, A represents the minimum channel availability, and K is the slope factor. Gating currents of KV4.1–4.3 channels were measured as previously reported ([Tilley et al., 2019]). Briefly, the ionic pore currents were abolished by replacing K^+ with NMDG^+ in the pipette solution, and 10 µM Cs^+ was present in the bath solution to occupy the selectivity filter of KV channels to prevent decay of the gating currents during recording.
(§3) Data were presented as MEAN ± SEM, n represents the number of separate experimental cells. Data were analyzed using the software Clampfit 10.5 (Axon Instruments, Irvine, CA, United States), Graphpad Prism 5.01 (GraphPad Software, La Jolla, CA, United States) and Excel 2010 (Microsoft Corporation, Redmond, WA, United States). […]

KV1.4 channel (rKV1.4) = experiment: Whole-cell patch clamp selectivity, KV1.4; format: cell-based, rat; conditions: KV1.4, 10 µM, n = 5
Experimental: (§4) The cDNA of hKV1.1, hKV1.3, rKV1.4, hKV1.5, rKV2.1, hKV3.1–3.4, mKV4.1, rKV4.2, and rKV4.3 were subcloned in the eukaryotic expression vector pCDNA3.1 or pCMV-blank. Channel mutants were made by a site-directed mutation method. Briefly, a pair of oppositely directed primers with 15 bp overlap at their 5′ ends and the designed mutation site were used to amplify the parental channel plasmid, then the PCR mix was treated with DpnI to remove the template. 10 μL digestion mix was directly used to transform 100 μL DH5α chemical competent cells. The correct mutation made by this procedure was finally confirmed by DNA sequencing. […] 4–6 h after transfection, cells were seeded onto poly-lysine (PLL) coated coverslips, and 24–36 h later, transfected cells were ready for patch-clamp analysis. […]
(§5) Whole-cell patch clamp recording was performed in an electrophysiology platform equipped with MultiClamp 700B amplifier and Axon Digidata 1550 AD/DA convertor (Axon Instruments, Irvine, CA, United States). […] The whole cell conductance (G) at each depolarizing voltage (V) was determined using the equation: G = I/(V−Vrev), where I and Vrev represents the current amplitude and the reversal potential, respectively. In the present study, Vrev for K^+ current is determined to be −85.61 mV using the Nernst equation. […] Gating currents of KV4.1–4.3 channels were measured as previously reported ([Tilley et al., 2019]). […]

[1] = system: KV4.2 channel gating currents; experiment: Gating current recording, KV4.2; format: cell-based, rat
Experimental: as §4, §5

KV1.3 channel (hKV1.3) = experiment: Whole-cell patch clamp selectivity, KV1.3; format: cell-based, human; conditions: KV1.3, 10 µM, n = 5
Experimental: as §4, §5

[2] = system: KV4.3/275FVPK chimeric channel; experiment: Whole-cell patch clamp, KV4.3/275FVPK chimera in CHO-K1 cells; format: cell-based, rat; conditions: mean ± SEM
Experimental: as §1, §2, §3

[3] = 10 μM κ-LhTx-1, KV4.1, two-pulse protocol, mean ± SEM, n = 5
[4] = 10 μM κ-LhTx-1, two-pulse protocol, n = 5

CC[C@H](C)[C@@H]1NC(=O)[C@H](CCC(N)=O)NC(=O)[C@@H]2CSSC[C@@H]3NC(=O)[C@H](CC(C)C)NC(=O)[C@H](CC(N)=O)NC(=O)[C@H](CCSC)NC(=O)[C@H](Cc4c[nH]c5ccccc45)NC(=O)[C@H](CO)NC(=O)[C@H](C)NC(=O)[C@@H](NC(=O)[C@H](CCC(=O)O)NC(=O)[C@H](CCC(N)=O)NC(=O)[C@H](C)NC(=O)[C@H](CC(=O)O)NC(=O)[C@@H](N)CCC(=O)O)CSSC[C@H](NC(=O)[C@H](CSSC[C@@H](C(=O)N[C@@H](CCCCN)C(=O)N[C@@H](Cc4ccc(O)cc4)C(=O)N[C@@H](CCCCN)C(=O)N[C@@H](CC(C)C)C(N)=O)NC(=O)[C@H](Cc4c[nH]c5ccccc45)NC1=O)NC(=O)[C@H](CCCCN)NC(=O)[C@H](CCCCN)NC(=O)[C@H](CCC(=O)O)NC(=O)CNC3=O)C(=O)N[C@@H](CCC(=O)O)C(=O)NCC(=O)N[C@@H](Cc1ccc(O)cc1)C(=O)N[C@@H](C(C)C)C(=O)N2 [κ-LhTx-1] (H-EDAQECASWMNLCGEKKCCEGYVCQIWCKYKL-NH2; disulfide 6-19, 13-24, 18-28 (inferred); N-terminus and C-terminus assumed)
Va (steady-state activation) (KV4.1 channel (mKV4.1); 10 μM κ-LhTx-1, KV4.1, Boltzmann fit of G-V curve, mean ± SEM, n = 5): 95.20 ± 1.68 mV
k, slope factor (steady-state activation) (KV4.1 channel (mKV4.1); 10 μM κ-LhTx-1, KV4.1, G-V, mean ± SEM, n = 5): 16.14 ± 1.78 mV
Vh (steady-state inactivation) (KV4.1 channel (mKV4.1); [3]): -32.48 ± 3.44 mV
k, slope factor (steady-state inactivation) (KV4.1 channel (mKV4.1); [3]): 22.88 ± 0.19 mV
reversibility of inhibition (KV4.1 channel (mKV4.1); KV4.1): in a reversible manner
voltage-dependence of inhibition (KV4.1 channel (mKV4.1); KV4.1, 10 µM, inhibition ratio at each depolarizing voltage, n = 5–8): affected by voltage to a much less extent
I-V: current inhibition below +60 mV (KV4.1 channel (mKV4.1); KV4.1, 10 µM, n = 5–8): fully inhibited the currents at voltages below +60 mV
I-V: reopening of toxin-bound channels (KV4.1 channel (mKV4.1); KV4.1, 10 µM, strong depolarization, n = 5–8): only depolarizations stronger than +70 mV could partially reopen the toxin-bound channels
maximum inhibition (KV4.1 channel (mKV4.1); KV4.1, saturating dose 10 μM, +30 mV): fully inhibit
current inhibition at Va (KV4.1 channel (mKV4.1); KV4.1 at Va depolarizing voltage): almost fully inhibited
∆Va (steady-state activation) (KV4.1 channel (mKV4.1); Va shift by 10 μM κ-LhTx-1 vs control, KV4.1, mean ± SEM): 98.28 ± 2.66 mV
∆Vh (steady-state inactivation) (KV4.1 channel (mKV4.1); Vh shift by 10 μM κ-LhTx-1 vs control, KV4.1, mean ± SEM): 29.27 ± 2.05 mV
effect on currents (KV1.4 channel (rKV1.4)): did not remarkably affect the currents
inhibition of gating charge (Q) movement, 500 nM vs 10 µM ([1]; KV4.2, holding −100 mV, 20 ms to +30 mV, n = 5–6): inhibited essentially the same proportion of gating charge movement
gating current inhibition ([1]; KV4.2, n = 5–6): inhibited the gating currents
effect on currents (KV1.3 channel (hKV1.3)): did not remarkably affect the currents
Va (steady-state activation) ([2]; 10 μM κ-LhTx-1, G-V, n = 5): 93.50 ± 2.00 mV
k, slope factor (steady-state activation) ([2]; 10 μM κ-LhTx-1, G-V, n = 5): 17.66 ± 1.15 mV
Vh (steady-state inactivation) [2, 4]: -9.28 ± 5.57 mV
k, slope factor (steady-state inactivation) [2, 4]: 16.78 ± 3.11 mV
∆Va (steady-state activation) ([2]; Va shift by 10 μM κ-LhTx-1 vs control): 94.81 ± 2.45 mV
∆Vh (steady-state inactivation) ([2]; Vh shift by 10 μM κ-LhTx-1 vs control): 43.34 ± 5.46 mV
inhi%(min) ([2]; inhibition ratio at +100 mV, 10 μM): 65.91 ± 3.36%
